Reference: BigSolDB 2.1

CC(=O)O[C@]1(C(C)=O)CC[C@H]2[C@@H]3C=C(Cl)C4=CC(=O)[C@@H]5C[C@@H]5[C@]4(C)[C@H]3CC[C@@]21C
solubility (mole fraction)
Settings | 273.15 K | 278.15 K | 283.15 K | 288.15 K | 293.15 K | 298.15 K | 303.15 K | 308.15 K | 313.15 K | 318.15 K
in MTBE | 0.000675 | 0.000675 | 0.000676 | 0.000676 | 0.000677 | 0.000677 | 0.000678 | 0.000678 | 0.000679 | 0.000679
in methanol | 0.000229 | 0.000229 | 0.000229 | 0.00023 | 0.00023 | 0.00023 | 0.00023 | 0.00023 | 0.00023 | 0.000231
in water | 6.57e-07 | 8.66e-07 | 1.16e-06 | 1.56e-06 | 2.09e-06 | 2.79e-06 | 3.67e-06 | 4.88e-06 | 6.36e-06 | 8.21e-06
